Assay results: patent publication US11560546B2, “Methods for neural conversion of human embryonic stem cells” (MEMORIAL SLOAN KETTERING CANCER CENTER, priority 2009, dated 2023)
Counter-ions that a name gives are not always drawn.

Columns and labels:
[1] = system: hESCs; test: Neural induction of hESC under adherent conditions, PAX6 expression; assay type: cell-based, human; conditions: 10 uM to 30 nM, each added to 10 uM of SB431542
Procedure: The inventors contemplated that establishing an even cell distribution is critical for inducing homogenous neural differentiation of hESCs. To this end, undifferentiated hESC were dissociated into single cells and re-plated onto Matrigel coated dishes in conditioned medium supplement with ROCK inhibitor, Y-27632 (Wananabe et at, 2007). After 72 hours cells were switched from hESC conditions to knock-out serum replacement medium (KSR) containing either Noggin, SB4315242, or both factors and allowed to differentiate for a total of 11 days (FIG. 1.a.). […] Neural induction was monitored by expression of PAX6, an early marker of neuroectodermal differentiation ([…], et al., Annu Rev Neurosci 20:483 (1997). As an alternative to the specific Smad inhibitors used here, it is possible to block both distinct Smad pathways using alternative inhibitors or mechanisms. Dorsomorphin is a small molecule alternative to Noggin, targeting the same pathway. Concentrations ranged from 10 uM to 30 nM, each individual amount added to 10 uM of SB431542. […] Quantitative Real-Time (Dual SMAD). […] For each sample, 1 ug of total RNA was treated for DNA contamination and reverse transcribed using the Quantitect RT kit (Qiagen). Amplified material was detected using Quantitect SYBR green probes and PCR kit (Qiagen) on a Mastercycler RealPlex2 (Eppendorf). […]

[2] = system: NSB derived neural precursor cells; test: Conditioned media patterning of naive neural progenitor cells, qRT-PCR; assay type: cell-based, human
From the text: The FP has important functional roles during development in neural patterning and axonal path finding (Jessell, 2000). To assess the functional properties of hESCs derived FP conditioned media was isolated at days 9 and 11 and tested for expression of Netrin-1 in the medium using ELISA (FIG. 3A). Under normal NSB conditions, Netrin-1 is detectable at Day 9 and decreases at Day 11 while in the NSB+SHH condition, there is a 3.5 fold increase in Netrin-1 levels, increasing at Day 11 (FIG. 3B). SHH is a critical patterning factor secreted by FP cells and specifying ventral cell types in a dose-dependent manner. To test if hESCs derived FP secretes factors that can specify ventral precursor domains, conditioned media (CM) was isolated at Days 9 and 11 of the differentiation. At Day 6, exogenous SHH was removed and cultures were washed to eliminate any exogenously added SHH from the medium. Naïve neural progenitor cells were isolated at Day 11 of the control (NSB) protocol and cultured with either NSB CM or FP CM. After Day 5 of culture in the presence of CM, the inventors probed for the expression of ventral precursor markers and expression of the SHH responsive gene GLI2. […] Increase in the expression of ventral markers was confirmed at the level of protein (FIG. 3C′).

[3] = most functional assays; cited from earlier work
[4] = system: rosette-stage neural cells; test: Floor plate induction in stromal-feeder (MS5) derived / rosette-stage neural cells; assay type: cell-based, human
Procedure: (§1) For MS5 induction, established methods previously reported were used (Perrier et al., 2004). Feeder free neural induction was carried out as previously described (Chambers et al., 2009). Briefly, hESCs cultures were disaggregated using accutase for 20 minutes, washed using hESCs media and pre-plated on gelatin for 1 hour at 37° C. in the presence of ROCK inhibitor to remove MEFs. The nonadherent hESCs were washed and plated on matrigel at a density of 20,000 cells/cm2 on matrigel (BD) coated dishes in MEF conditioned hESCs media (CM) spiked with 10 ng/mL of FGF-2 and ROCK-inhibitor. The ROCK inhibitor was withdrawn, and hESCs were allowed to expand in CM for 3 days or until they were nearly confluent. The initial differentiation media conditions included knock out serum replacement (KSR) media with […] TGF-b inhibitor (SB431542, Tocris) and 500 ng/mL of Noggin (R&D). Upon day 5 of differentiation, increasing amounts of N2 media (25%, 50%, 75%) was added to the KSR media every two days while maintaining 500 ng/mL of Noggin and TGF-b inhibitor. For FP induction, Sonic C25II was added at 200 ng/ml.
hESC derived neural cells at the rosette stage were differentiated into both CNS and PNS progeny and patterned towards multiple cells fates along the A/P and D/V axis (Elkabetz et al., 2008). […] Specification of progenitor cells into FP tissue and cells during mouse development was thought to depend on SHH signaling within early neural lineages. The inventors tested whether rosette-stage neural cells were competent to undergo FP specification in response to SHH. High concentrations of SHH were needed to induce FP during mouse development (Roelink et al., 1994; Ericson et al., 1996). Recombinant N-terminal SHH has a limited activity range due to the lack of posttranslational modifications required for full SHH action. Recently, a modified version of recombinant SHH became available where SHH was tethered to two Isoleucines (Sonic C25II, R&D Systems), mimicking more closely the potency of mammalian SHH protein.
The majority of cells retained rosette cytoarchitecture and staining for the AN marker BF1 as described previously (FIG. 1A) (Elkabetz et al., 2008).
Based on the hypothesis that FP specification in the mouse occurs at early developmental stages, at the time of or prior to neural induction, the inventors repeated SHH induction studies at Day 9, the time of rosette specification, using classic stromal-feeder mediated neural induction protocols (Elkabetz et al., 2008). Under this paradigm the inventors noticed a drastic change in cell morphology restricted to the cells treated with SHH-C25II (FIG. 1B).

[5] = system: hESCs; test: Floor plate induction in NSB protocol, FOXA2 immunostaining; assay type: cell-based, human; conditions: NSB protocol
Procedure: as §1
Tissue was fixed using 4% paraformaldehyde and Picric acid for 15 minutes, washed with PBS, permeablized using 0.3% Triton X in PBS, and blocked using 10% Donkey Serum. Primary antibodies used for microscopy included PAX6 (Covance), TUJ1 (Covance), ZO1 (Zymed), BF1 (FOXG1, gift E.Lai), TH (Pelfreez), NKX6.1 (DSHB) and FOXA2 (SantaCruz).
Using this protocol, in combination with compositions and methods of the present inventions, the inventors aimed to optimize FP differentiation by adding Sonic C25II at different time points during neural induction and assaying for FOXA2 expression. Differentiation was initiated upon NSB exposure, and Sonic C25II was added at Day 1, Day 3, Day 5, or Day 7 (FIG. 2A).

[6] = system: hESCs; test: qRT-PCR of FP, AN and regional markers during FP induction; assay type: cell-based, human
Procedure: as §1
Total RNA was extracted using an RNeasy kit (Qiagen). For each sample, 1 ug of total RNA was treated for DNA contamination and reverse transcribed using the Superscript III (Invitrogen). Amplified material was detected using Taqman probes and PCR mix (ABI) on a Mastercycler RealPlex2 (Eppendorf). All results were normalized to a HPRT control and are from 3 technical replicates of 3 independent biological samples at each data point.
FOXA2 is a key marker of FP development. However, FOXA2 is also highly expressed in the endoderm. To further characterize the hESC derived putative FP tissue, the inventors performed qRT-PCR analyses for candidate markers at Day 11. […] The inventors further characterized the nature of FOXA2+ putative FP cells using a panel of neural precursor, glial, neuronal and non-neural markers (FIG. 7). […] To distinguish FOXA2 expression in hESC derived FP versus endoderm tissue, the inventors differentiated hESCs to endoderm (D'Amour et al., 2005).
To gain further insight into the factors critical for human FP specification, high resolution temporal gene expression profiles of candidate markers were performed at 6 time points during the 11 day protocol.
The inventors contemplated the use of SIX6 as a putative marker of anterior FP identity. Thus SIX6 status of the hESC derived FP was used to mark respecification in response to known caudalizing agents such as FGF8, Wnt-1, and Retinoic Acid. Each of these caudalizing factors was added in combination with SHH and the resulting tissue was assessed for expression of the FP markers FOXA2 and NETRIN-1, the AN marker BF1, and putative anterior FP marker SIX6.

[7] = system: DKK-1; test: DKK-1 transcript (qPCR) and protein in medium (ELISA); assay type: cell-based, human; conditions: as early as 2 days post treatment
[8] = system: hESCs; test: Placode induction from hESC (Six1 immunocytochemistry, qRT-PCR); assay type: cell-based, human; conditions: early addition to SB431542 (1 μM) treated hESCs
From the text: Sensory placodes are developmental structures formed at the interface of early neuroectodermal and non-neural ectoderm tissue. To address whether the N-SB culture system is suitable for the derivation of placodal cells, The inventors first established a set of markers to identify placode identity in human embryonic stem cells (hESCs)-derived cultures. From studies in other model organisms, The inventors postulated a number of candidate markers to identify human placodal precursor during hESC differentiation including member of the Six, Eya, and Dlx family of transcription factors. Six1 marks the pre-placodal region and placodal cells in model organisms but is also expressed in skeletal muscle precursors.
276(1): p. 1-15, herein incorporated by reference. To test whether addition of exogenous BMPs enhances the derivation of Six1+ cells, The inventors exposed SB431542 (1 μM) treated hESCs to various concentration of BMP4. […] 27(3): p. 275-80; Xu, et al., Nat Biotechnol, 2002. 20(12): p. 1261-4, herein incorporated by reference.
We next explored whether simple withdrawal of the BMP inhibitor noggin during N-SB differentiation may enhance the emergence of placodal fates by de-repressing endogenous BMP signaling. […]

## c1cc(-c2cnn3cc(-c4ccc(OCCN5CCCCC5)cc4)cnc23)ccn1 [Dorsomorphin, 6-[4-[2-(1-Piperidinyl)ethoxy]phenyl]-3-(4-pyridinyl)-pyrazolo[1,5-a]pyrimidine dihydrochloride]
[1]
  efficiency of neural induction based on the percentage of PAX6+ cells: not as high as used with Noggin/SB431542

## CC1=C2C[C@H]3[C@@H](CC=C4C[C@@H](O)CC[C@@]43C)[C@@H]2CC[C@]12O[C@@H]1C[C@H](C)CN[C@H]1[C@H]2C [cyclopamine]
[2]
  NKX2.1, NKX6.1 and GLI2 expression induced by FP conditioned media: significantly reduced

## Sonic C25II: modified recombinant SHH tethered to two Isoleucines (R&D Systems); 'SHH' in FP induction examples, added at 200 ng/ml
[3]
  potency relative to non-modified N-terminal SHH: ~10 times
[4]; added at Day 9, stromal-feeder neural induction
  concentrations achieving induction of FOXA2+ cells and decrease in BF1 and PAX6: 125 to 500 ng/mL
[4]; added at Day 9, stromal-feeder neural induction, Day 21
  induction of FOXA2+ cells: robust upregulation of FOXA2+
[4]; dose-response, added at Day 15
  FP marker (FOXA2) expression on established rosette-stage neural cells: did not yield cells expressing FP markers
[5]
  FOXA2 yield with extended treatment beyond Day 11: did not increase FOXA2 yield
[5]; added starting at day 1
  FOXA2+ cells (of total cells): about 65%
[6]; Day 5 of differentiation, FP induction versus NSB control
  increase in SIX6 mRNA levels: About 50,000 fold
[6]; day 7, versus NSB
  PAX6 and BF1 expression: drastic reduction in PAX6 and BF1
[7]
  DKK-1 mRNA and protein levels: drastic reduction

B1: BMP4: bone morphogenetic protein-4, exogenous BMP (protein, UniProt P12644 293-408, looked up)
Bone morphogenetic protein 4: SPKHHSQRARKKNKNCRRHSLYVDFSDVGWNDWIVAPPGYQAFYCHGDCPFPLADHLNSTNHAIVQTLVNSVNSSIPKACCVPTELSAISMLYLDEYDKVVLKNYQEMVVEGCGCR
[8]
  cdx2 induction / trophoectodermal differentiation: induction of cdx2
